Earlier results on one compound are cited in patent US11278622B2, “Ceftolozane antibiotic compositions” (Merck Sharp & Dohme Corp., priority 2013, dated 2022).

The structures appear in SMILES notation.

The test system of this data set is P. aeruginosa.

A word on the MIC90: it is the lowest concentration that inhibits either 90% of growth or 90% of the strains tested, depending on the study. Turning to `Cn1c(N)c(NC(=O)NCCN)c[n+]1CC1=C(C(=O)O)N2C(=O)[C@@H](NC(=O)/C(=N\OC(C)(C)C(=O)O)c3nsc(N)n3)[C@H]2SC1` [ceftolozane, (6R,7R)-3-[(5-amino-4-{[(2-aminoethyl)carbamoyl]amino}-1-methyl-1H-pyrazol-2-ium-2-yl)methyl]-7-({(2Z)-2-(5-amino-1,2,4-thiadiazol-3-yl)-2-[(1-carboxy-1-methylethoxy)imino]acetyl}amino)-8-oxo-5-thia-1-azabicyclo[4.2.0]oct-2-ene-2-carboxylate], the MIC90 is at most 2 µg/mL.
